The values that follow come from US10392368B2, “Pyrazolo and triazolo bicyclic compounds as JAK kinase inhibitors” (THERAVANCE BIOPHARMA R&D IP, LLC, priority 2017, dated 2019).

Molecules are shown by their SMILES. Like-named read-outs stand apart in the source and are kept apart here. A value given as a limit tells only on which side of the number the result lay.

The target in assay [1] is T1, Tyk2 (Homo sapiens, UniProt P29597).
T1 construct: GST; purchased Life Technologies
The assay can be described thus: Biochemical Tyk2 kinase assay (LanthaScreen). Particulars: for Ki: read-out: Tyk 2 (pKi) (converted). The essentials:
(§1)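 GST-tagged JAK enzyme and GFP-STAT1 peptide preincubated with compound 1 h, then ATP added; 1 h kinase reaction at ambient temperature, pH 7.5 HEPES/MgCl2 buffer, 1% DMSO. Tb-anti-pSTAT1 (pTyr701) TR-FRET, 520/495 nm ratio; IC50 from 4-parameter fit, converted to pKi via Cheng-Prusoff.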

The subject of assay [2] is IL-2 stimulated pSTAT5 in Tall-1 T cells. The assay can be described thus: Cellular JAK3 potency assay: inhibition of IL-2 stimulated pSTAT5 in Tall-1 T cells. The format is cell-based, human. Particulars: for IC50: Homo sapiens, read-out: Tall-1 (pIC50) (converted). In outline:
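Inhibition of IL-2-induced pSTAT5 was quantified by AlphaLisa in Tall-1 cell lysates. Compound exposure lasted 1 h before 30 min stimulation with 300 ng/ml IL-2 final.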

Assay [3] addresses T2, JAK3 (Homo sapiens, UniProt P52333).
T2 sequence (P52333 1-1124): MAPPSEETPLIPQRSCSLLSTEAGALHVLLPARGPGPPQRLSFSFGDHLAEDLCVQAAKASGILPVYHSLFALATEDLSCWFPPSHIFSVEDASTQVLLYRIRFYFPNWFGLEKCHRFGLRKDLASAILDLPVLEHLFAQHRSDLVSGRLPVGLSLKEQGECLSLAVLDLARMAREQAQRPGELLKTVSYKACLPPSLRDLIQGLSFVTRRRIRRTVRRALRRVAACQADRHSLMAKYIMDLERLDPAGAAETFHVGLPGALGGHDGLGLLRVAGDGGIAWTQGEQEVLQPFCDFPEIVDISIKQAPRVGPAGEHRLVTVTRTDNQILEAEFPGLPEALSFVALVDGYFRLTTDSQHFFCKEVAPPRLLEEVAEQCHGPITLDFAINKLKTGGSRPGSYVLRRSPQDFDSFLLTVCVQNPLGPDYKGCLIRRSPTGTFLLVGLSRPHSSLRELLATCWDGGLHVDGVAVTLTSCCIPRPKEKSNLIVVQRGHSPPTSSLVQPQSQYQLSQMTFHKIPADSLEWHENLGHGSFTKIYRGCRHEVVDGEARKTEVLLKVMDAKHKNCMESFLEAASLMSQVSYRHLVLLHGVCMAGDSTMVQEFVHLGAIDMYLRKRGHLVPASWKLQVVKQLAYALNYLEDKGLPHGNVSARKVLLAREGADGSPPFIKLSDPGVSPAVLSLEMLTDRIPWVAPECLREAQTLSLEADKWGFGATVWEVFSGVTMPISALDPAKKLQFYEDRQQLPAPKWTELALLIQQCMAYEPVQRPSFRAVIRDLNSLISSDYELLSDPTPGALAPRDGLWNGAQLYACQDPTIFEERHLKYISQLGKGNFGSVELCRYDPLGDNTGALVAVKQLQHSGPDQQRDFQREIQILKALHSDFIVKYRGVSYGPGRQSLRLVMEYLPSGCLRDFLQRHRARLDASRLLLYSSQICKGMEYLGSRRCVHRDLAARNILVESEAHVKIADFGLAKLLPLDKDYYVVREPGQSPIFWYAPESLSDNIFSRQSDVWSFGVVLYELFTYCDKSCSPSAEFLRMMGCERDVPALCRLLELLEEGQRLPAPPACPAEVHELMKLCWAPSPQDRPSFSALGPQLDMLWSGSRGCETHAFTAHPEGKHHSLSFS
The assay can be described thus: Biochemical JAK3 kinase assay (LanthaScreen). Also on record: GST; purchased Life Technologies. Conditions: for Ki: read-out: JAK 3 (pKi) (converted). In outline:
as §1

The target of assay [4] is T3, JAK1 (Homo sapiens, UniProt P23458).
T3 construct: GST; purchased Life Technologies
T3 sequence (P23458 whole entry): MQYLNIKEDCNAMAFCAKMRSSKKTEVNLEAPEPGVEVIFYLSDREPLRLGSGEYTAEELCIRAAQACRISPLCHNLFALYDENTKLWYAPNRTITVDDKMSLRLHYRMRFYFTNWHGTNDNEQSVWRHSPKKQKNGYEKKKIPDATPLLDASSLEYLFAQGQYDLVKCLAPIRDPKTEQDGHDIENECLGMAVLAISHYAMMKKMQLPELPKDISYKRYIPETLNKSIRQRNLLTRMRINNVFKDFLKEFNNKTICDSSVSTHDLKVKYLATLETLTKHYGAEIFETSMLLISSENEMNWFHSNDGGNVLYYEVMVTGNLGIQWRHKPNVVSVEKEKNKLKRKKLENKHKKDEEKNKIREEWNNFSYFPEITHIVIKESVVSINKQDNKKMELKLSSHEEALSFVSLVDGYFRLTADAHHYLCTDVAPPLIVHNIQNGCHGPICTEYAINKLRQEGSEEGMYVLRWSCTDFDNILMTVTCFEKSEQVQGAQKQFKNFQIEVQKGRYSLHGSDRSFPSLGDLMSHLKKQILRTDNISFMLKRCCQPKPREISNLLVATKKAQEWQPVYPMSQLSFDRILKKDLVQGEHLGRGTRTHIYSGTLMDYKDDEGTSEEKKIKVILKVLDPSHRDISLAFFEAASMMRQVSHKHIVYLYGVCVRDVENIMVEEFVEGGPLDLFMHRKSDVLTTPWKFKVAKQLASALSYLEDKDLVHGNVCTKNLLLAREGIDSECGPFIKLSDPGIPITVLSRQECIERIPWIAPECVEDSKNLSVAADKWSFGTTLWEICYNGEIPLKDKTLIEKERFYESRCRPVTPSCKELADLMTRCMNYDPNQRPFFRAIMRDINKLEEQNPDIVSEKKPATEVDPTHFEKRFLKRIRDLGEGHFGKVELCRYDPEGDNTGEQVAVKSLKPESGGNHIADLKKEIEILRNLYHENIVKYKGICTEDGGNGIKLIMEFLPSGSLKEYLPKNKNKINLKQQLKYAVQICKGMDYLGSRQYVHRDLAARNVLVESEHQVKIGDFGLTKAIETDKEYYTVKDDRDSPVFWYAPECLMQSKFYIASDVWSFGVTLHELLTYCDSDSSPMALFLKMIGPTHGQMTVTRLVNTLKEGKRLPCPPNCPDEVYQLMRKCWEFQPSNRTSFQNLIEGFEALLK
The assay can be described thus: Biochemical JAK1 kinase assay (LanthaScreen). Particulars: for Ki: read-out: JAK 1 (pKi) (converted). In outline:
as §1

Assay [5] addresses T4, JAK2 (Homo sapiens, UniProt O60674).
T4 construct: GST; purchased Life Technologies
The assay can be described thus: Biochemical JAK2 kinase assay (LanthaScreen). Particulars: for Ki: read-out: JAK 2 (pKi) (converted). In outline: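 pKi values derive from pIC50 via Cheng-Prusoff, with IC50 from a 4-parameter fit of percent-inhibition TR-FRET data using Tb-anti-pSTAT1 (pTyr701) detection. Compound, GST-JAK2 and GFP-STAT1 substrate were pre-incubated 1 h, then ATP started a 1 h ambient reaction (HEPES pH 7.5, 10 mM MgCl2, 1% DMSO).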

Where [6] appears, read: IL-2 stimulated pSTAT5 in Tall-1 T cells.
Where [7] appears, read: selectivity: difference of pKi JAK3 and pKi JAK1.
The mark [8] stands for this setting: IL-2 stimulated pSTAT5, Tall-1 T cells.
Setting [9] is: selectivity JAK3 over JAK1, difference of pKi.

T4 sequence (O60674 whole entry): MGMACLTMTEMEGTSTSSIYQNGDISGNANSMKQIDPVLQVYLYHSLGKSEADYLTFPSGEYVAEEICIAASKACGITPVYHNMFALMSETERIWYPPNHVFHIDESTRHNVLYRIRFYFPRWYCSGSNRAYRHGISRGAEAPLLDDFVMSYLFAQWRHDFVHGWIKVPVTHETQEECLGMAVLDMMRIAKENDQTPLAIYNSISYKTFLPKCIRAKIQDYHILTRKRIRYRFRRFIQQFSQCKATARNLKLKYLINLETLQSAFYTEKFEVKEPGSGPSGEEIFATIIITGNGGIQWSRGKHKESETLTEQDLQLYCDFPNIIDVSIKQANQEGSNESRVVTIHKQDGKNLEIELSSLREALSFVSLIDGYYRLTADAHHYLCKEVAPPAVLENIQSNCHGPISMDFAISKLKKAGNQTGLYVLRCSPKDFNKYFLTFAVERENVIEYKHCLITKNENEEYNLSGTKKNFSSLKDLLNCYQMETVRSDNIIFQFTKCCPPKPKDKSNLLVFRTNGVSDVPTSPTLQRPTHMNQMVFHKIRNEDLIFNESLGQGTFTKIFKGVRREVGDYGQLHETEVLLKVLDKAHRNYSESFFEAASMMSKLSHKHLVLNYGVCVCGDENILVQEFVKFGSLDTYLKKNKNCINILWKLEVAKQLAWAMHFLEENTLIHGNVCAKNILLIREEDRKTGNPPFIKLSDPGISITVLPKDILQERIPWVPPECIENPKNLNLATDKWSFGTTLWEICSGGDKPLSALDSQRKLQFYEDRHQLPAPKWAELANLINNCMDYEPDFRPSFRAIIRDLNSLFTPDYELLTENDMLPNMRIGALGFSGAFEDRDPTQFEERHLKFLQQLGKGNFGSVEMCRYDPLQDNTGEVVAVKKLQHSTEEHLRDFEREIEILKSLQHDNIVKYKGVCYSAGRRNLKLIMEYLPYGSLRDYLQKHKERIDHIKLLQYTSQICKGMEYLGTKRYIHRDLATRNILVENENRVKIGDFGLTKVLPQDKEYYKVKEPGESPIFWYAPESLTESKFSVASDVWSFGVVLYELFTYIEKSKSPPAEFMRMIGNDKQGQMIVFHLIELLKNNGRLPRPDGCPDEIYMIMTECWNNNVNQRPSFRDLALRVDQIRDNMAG
T1 sequence (P29597 whole entry): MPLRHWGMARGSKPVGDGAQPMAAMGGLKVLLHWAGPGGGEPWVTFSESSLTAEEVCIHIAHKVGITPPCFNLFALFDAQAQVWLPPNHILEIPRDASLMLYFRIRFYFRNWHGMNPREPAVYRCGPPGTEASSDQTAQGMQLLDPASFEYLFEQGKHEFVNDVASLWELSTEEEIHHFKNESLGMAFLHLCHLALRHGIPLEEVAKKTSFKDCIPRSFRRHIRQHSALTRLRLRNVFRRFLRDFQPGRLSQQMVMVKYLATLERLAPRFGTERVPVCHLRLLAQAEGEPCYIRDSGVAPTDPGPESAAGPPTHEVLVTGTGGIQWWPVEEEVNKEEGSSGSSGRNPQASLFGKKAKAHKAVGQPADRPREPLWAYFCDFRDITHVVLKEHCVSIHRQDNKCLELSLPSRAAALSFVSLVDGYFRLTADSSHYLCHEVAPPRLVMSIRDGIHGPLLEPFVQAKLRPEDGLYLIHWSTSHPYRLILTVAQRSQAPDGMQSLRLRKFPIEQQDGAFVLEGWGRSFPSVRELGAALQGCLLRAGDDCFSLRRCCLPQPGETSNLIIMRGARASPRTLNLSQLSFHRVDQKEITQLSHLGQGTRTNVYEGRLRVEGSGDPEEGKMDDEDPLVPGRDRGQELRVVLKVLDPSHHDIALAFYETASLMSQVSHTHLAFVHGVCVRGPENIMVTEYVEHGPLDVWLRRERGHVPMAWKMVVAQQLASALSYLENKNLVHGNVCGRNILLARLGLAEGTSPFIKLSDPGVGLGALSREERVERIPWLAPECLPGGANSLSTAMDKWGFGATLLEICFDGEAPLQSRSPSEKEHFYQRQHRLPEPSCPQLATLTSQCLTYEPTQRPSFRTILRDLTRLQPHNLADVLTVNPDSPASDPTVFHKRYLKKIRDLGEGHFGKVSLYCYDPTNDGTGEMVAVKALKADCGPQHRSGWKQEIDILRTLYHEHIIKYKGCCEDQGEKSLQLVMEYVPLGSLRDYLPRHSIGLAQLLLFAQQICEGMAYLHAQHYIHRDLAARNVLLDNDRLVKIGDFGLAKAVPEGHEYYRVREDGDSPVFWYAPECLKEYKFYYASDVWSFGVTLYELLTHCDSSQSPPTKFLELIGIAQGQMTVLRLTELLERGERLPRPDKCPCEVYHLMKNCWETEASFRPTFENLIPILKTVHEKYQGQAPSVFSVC

On to `C=CC(=O)N1CC(CC)(COc2nc(-c3ccc(O)cc3)nc3[nH]ncc23)C1` [Compound 3-63], for which the “Tyk 2 (pKi)” value in assay [1] is “E (a pKi value of 7 or below (Ki of 100 nM or above))”. Further, the “Tall-1 (pIC50)” value in assay [2] (setting [6]) is “B (a pIC50 value between 6.7 (included) and 7.5 (IC50 between 200 nM and 32 nM))”. Moreover, in assay [3], the “JAK 3 (pKi)” value was “A (a pKi value≥10 (Ki≤0.1 nM))”. The “JAK3 (pKi)-JAK1 (pKi)” value in assay [3] (setting [7]) is “A (a value of 3 or above)”. The “JAK 1 (pKi)” value in assay [4] was “E (a pKi value of 7 or below (Ki of 100 nM or above))”. Also, the “JAK 2 (pKi)” value in assay [5] is reported as “E (a pKi value of 7 or below (Ki of 100 nM or above))”.

Regarding `C=CC(=O)N1CC[C@H](Oc2cc(-c3ccc(O)cc3)cc3[nH]nc(Cl)c23)C1` [Compound 1-47], the “Tyk 2 (pKi)” value in assay [1] was “E (a pKi value of 7 or below (Ki of 100 nM or above))”. Further, the “Tall-1 (pIC50)” value in assay [2] (setting [6]) was “B (a pIC50 value between 6.7 (included) and 7.5 (IC50 between 200 nM and 32 nM))”. The “JAK 3 (pKi)” value in assay [3] was “B (a pKi value between 9 and 10 (Ki between 1 nM and 0.1 nM))”. Also, the “JAK3 (pKi)-JAK1 (pKi)” value in assay [3] (setting [7]) is “B (a value of 2.3 to 3)”. Moreover, in assay [4], the “JAK 1 (pKi)” value is recorded as “E (a pKi value of 7 or below (Ki of 100 nM or above))”. In assay [5], the “JAK 2 (pKi)” value is “E (a pKi value of 7 or below (Ki of 100 nM or above))”.

Take `C=CC(=O)N1CCC(C)(Oc2cc(-c3ccc(O)cc3)cc3[nH]ncc23)C1` (stereo not drawn) [Compound 13-15]: the “Tyk 2 (pKi)” value in assay [1] was “E (a pKi value of 7 or below (Ki of 100 nM or above))”. In assay [2] (setting [8]), the “Tall-1 (pIC50)” value is “B (a pIC50 value between 6.7 (included) and 7.5 (IC50 between 200 nM and 32 nM))”. Further, the “JAK 3 (pKi)” value in assay [3] was “B (a pKi value between 9 and 10 (Ki between 1 nM and 0.1 nM))”. In addition, the “JAK3 (pKi)-JAK1 (pKi)” value in assay [3] (setting [9]) is given as “A (a value of 3 or above)”. Further, the “JAK 1 (pKi)” value in assay [4] is “E (a pKi value of 7 or below (Ki of 100 nM or above))”. Moreover, the “JAK 2 (pKi)” value in assay [5] is “D (a pKi value between 7 and 8 (Ki between 100 nM and 10 nM))”.

Consider `CN(C/C=C/C(=O)N1CC(COc2cc(-c3ccc(O)cc3)cc3[nH]ncc23)C1)C(C)(C)C` [Compound 3-116], for which the Ki was over 100 nM in assay [1], 0.1 to 1 nM in assay [3], over 100 nM in assay [4] and 10 to 100 nM in assay [5]. For the same molecule, the IC50 in assay [2] (TALL-1, IL-2 stimulated pSTAT5 in Tall-1 T cells) is 31.6 to 200 nM. Also, the “JAK3 (pKi)-JAK1 (pKi)” value in assay [3] (setting [7]) was “B (a value of 2.3 to 3)”.

In the case of `C=CC(=O)N1CCO[C@@H](C(=O)Nc2nc(-c3ccc(O)c(Cl)c3)cc3[nH]ncc23)C1` [Compound 13-20], the “Tyk 2 (pKi)” value in assay [1] is “E (a pKi value of 7 or below (Ki of 100 nM or above))”. Further, the “Tall-1 (pIC50)” value in assay [2] (setting [8]) is “B (a pIC50 value between 6.7 (included) and 7.5 (IC50 between 200 nM and 32 nM))”. Also, the “JAK 3 (pKi)” value in assay [3] is “B (a pKi value between 9 and 10 (Ki between 1 nM and 0.1 nM))”. For the same molecule, the “JAK3 (pKi)-JAK1 (pKi)” value in assay [3] (setting [9]) is recorded as “B (a value of 2.3 to 3)”. Further, the “JAK 1 (pKi)” value in assay [4] is “E (a pKi value of 7 or below (Ki of 100 nM or above))”. The “JAK 2 (pKi)” value in assay [5] was “E (a pKi value of 7 or below (Ki of 100 nM or above))”.

Regarding `C=CC(=O)N1CCC(COc2cc(-c3ccc(O)cc3)nc3[nH]ncc23)CC1` [Compound 14-2], the “Tyk 2 (pKi)” value in assay [1] is “E (a pKi value of 7 or below (Ki of 100 nM or above))”. Also, in assay [2] (setting [8]), the “Tall-1 (pIC50)” value is “B (a pIC50 value between 6.7 (included) and 7.5 (IC50 between 200 nM and 32 nM))”. The “JAK 3 (pKi)” value in assay [3] is “A (a pKi value≥10 (Ki≤0.1 nM))”. Moreover, the “JAK3 (pKi)-JAK1 (pKi)” value in assay [3] (setting [9]) is given as “A (a value of 3 or above)”. Besides, the “JAK 1 (pKi)” value in assay [4] is given as “E (a pKi value of 7 or below (Ki of 100 nM or above))”. Also, in assay [5], the “JAK 2 (pKi)” value is recorded as “E (a pKi value of 7 or below (Ki of 100 nM or above))”.

Take `CN(C)C/C=C/C(=O)N1CCC(C)(Oc2cc(-c3ccc(O)c(Cl)c3)cc3[nH]ncc23)CC1` [Compound 6-4]: the Ki in assay [1] was over 100 nM; in assay [3], under 0.1 nM; in assay [4], over 100 nM; in assay [5], 10 to 100 nM. Moreover, the IC50 in assay [2] (TALL-1, IL-2 stimulated pSTAT5, Tall-1 T cells) is 31.6 to 200 nM. Moreover, in assay [3] (setting [9]), the “JAK3 (pKi)-JAK1 (pKi)” value was “A (a value of 3 or above)”.
